Consider eight compounds from ChEMBL document CHEMBL2417377, “Hit-to-lead optimization and kinase selectivity of imidazo[1,2-a]quinoxalin-4-amine derived JNK1 inhibitors” (Bioorg Med Chem Lett, 2013).

Settings in all cases: PC-3
Test [1] addresses Phosphatidylinositol 4,5-bisphosphate 3-kinase catalytic subunit beta isoform (Homo sapiens) (UniProt P42338). Put plainly: Inhibition of PIK3CB in human PC3 cell lysates at 10 uM using desthiobiotin-tagged ATP probe AX9989 followed by trypsinization by LC/MS analysis.
The target in test [2] is Mitogen-activated protein kinase 14 (Homo sapiens) (UniProt Q16539). Nature of the test: Inhibition of p38alpha in human PC3 cell lysates at 10 uM using desthiobiotin-tagged ATP probe AX9989 followed by trypsinization by LC/MS analysis.
Test [3] concerns the target Epidermal growth factor receptor (Homo sapiens) (UniProt P00533). Put plainly: Inhibition of EGFR in human PC3 cell lysates at 10 uM using desthiobiotin-tagged ATP probe AX9989 followed by trypsinization by LC/MS analysis.
Test [4] addresses T1, Eukaryotic translation initiation factor 2-alpha kinase 3 (Homo sapiens) (UniProt Q9NZJ5).
T1 sequence (whole entry): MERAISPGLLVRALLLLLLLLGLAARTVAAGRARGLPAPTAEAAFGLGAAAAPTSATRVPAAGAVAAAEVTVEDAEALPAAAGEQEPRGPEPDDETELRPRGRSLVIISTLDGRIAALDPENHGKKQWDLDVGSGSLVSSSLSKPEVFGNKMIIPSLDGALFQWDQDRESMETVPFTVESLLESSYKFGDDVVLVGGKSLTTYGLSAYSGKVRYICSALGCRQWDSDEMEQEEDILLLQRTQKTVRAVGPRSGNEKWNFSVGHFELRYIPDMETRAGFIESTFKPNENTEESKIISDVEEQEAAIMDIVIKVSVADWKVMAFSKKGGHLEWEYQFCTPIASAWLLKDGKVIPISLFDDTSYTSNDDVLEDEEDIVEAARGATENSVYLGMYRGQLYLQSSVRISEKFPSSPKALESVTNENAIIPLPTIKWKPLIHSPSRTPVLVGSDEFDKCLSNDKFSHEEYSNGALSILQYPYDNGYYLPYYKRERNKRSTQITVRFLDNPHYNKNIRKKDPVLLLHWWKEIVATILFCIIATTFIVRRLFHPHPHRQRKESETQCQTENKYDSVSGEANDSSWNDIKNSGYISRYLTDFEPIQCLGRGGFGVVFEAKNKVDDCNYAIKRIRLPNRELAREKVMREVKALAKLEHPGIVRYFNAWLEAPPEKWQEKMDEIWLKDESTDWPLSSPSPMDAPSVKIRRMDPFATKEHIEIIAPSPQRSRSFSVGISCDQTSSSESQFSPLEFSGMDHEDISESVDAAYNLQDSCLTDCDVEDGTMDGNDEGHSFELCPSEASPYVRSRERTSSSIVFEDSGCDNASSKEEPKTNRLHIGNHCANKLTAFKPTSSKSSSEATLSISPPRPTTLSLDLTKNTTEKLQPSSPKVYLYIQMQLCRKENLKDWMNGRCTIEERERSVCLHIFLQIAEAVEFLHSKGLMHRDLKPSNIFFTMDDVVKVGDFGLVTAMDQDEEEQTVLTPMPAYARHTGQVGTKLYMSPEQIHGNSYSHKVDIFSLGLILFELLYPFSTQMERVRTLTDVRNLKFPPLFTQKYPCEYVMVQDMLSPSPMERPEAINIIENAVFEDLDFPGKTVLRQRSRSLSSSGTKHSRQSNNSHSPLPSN
Nature of the test: Inhibition of PEK in human PC3 cell lysates at 10 uM using desthiobiotin-tagged ATP probe AX9989 followed by trypsinization by LC/MS analysis.

Test [5] has as its target Rho-associated protein kinase 1 (Homo sapiens) (UniProt Q13464). Put plainly: Inhibition of ROCK1 in human PC3 cell lysates at 10 uM using desthiobiotin-tagged ATP probe AX9989 followed by trypsinization by LC/MS analysis.
For test [6], the target named is AMPK alpha1/alpha2 (Homo sapiens) (UniProt P54646+Q13131). Nature of the test: Inhibition of AMPKalpha1/AMPKalpha2 in human PC3 cell lysates at 10 uM using desthiobiotin-tagged ATP probe AX9989 followed by trypsinization by LC/MS analysis. The class given is protein-complex assay.
In test [7] the target is Cyclin-dependent kinase 16 (Homo sapiens) (UniProt Q00536). Nature of the test: Inhibition of PCTAIRE1 in human PC3 cell lysates at 10 uM using desthiobiotin-tagged ATP probe AX9989 followed by trypsinization by LC/MS analysis.
Test [8] has as its target T2, Peripheral plasma membrane protein CASK (Homo sapiens) (UniProt O14936).
T2 sequence (whole entry): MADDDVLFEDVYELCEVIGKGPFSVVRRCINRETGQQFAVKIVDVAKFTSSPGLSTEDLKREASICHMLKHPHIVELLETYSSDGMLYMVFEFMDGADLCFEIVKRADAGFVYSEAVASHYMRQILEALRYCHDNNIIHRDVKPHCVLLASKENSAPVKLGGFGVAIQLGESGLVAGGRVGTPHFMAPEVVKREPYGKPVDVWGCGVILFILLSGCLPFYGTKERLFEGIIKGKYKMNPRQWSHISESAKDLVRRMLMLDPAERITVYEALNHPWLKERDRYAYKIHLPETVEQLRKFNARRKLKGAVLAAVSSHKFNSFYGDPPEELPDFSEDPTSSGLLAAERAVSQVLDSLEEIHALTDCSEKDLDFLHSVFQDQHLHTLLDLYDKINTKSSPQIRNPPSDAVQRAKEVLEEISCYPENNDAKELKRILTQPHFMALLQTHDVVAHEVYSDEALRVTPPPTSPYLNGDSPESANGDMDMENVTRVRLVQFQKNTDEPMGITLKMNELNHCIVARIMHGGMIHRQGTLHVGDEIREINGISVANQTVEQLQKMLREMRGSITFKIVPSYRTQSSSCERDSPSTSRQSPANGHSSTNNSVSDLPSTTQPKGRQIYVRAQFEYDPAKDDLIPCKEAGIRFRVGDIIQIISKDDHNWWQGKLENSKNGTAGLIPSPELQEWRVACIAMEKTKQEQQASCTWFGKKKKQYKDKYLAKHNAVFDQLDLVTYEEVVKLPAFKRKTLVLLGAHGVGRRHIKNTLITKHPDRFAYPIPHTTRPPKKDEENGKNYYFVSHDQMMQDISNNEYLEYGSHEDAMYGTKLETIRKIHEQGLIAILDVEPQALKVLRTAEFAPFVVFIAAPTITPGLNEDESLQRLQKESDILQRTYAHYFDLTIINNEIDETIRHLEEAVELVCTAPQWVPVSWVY
Put plainly: Inhibition of CASK in human PC3 cell lysates at 10 uM using desthiobiotin-tagged ATP probe AX9989 followed by trypsinization by LC/MS analysis.

For test [9], the target named is IKK epsilon/TBK1 (Homo sapiens) (UniProt Q14164+Q9UHD2). Nature of the test: Inhibition of IKKepsilon/TBK1 in human PC3 cell lysates at 10 uM using desthiobiotin-tagged ATP probe AX9989 followed by trypsinization by LC/MS analysis. The class given is protein-complex assay.
The target in test [10] is Serine/threonine-protein kinase Nek6 (Homo sapiens) (UniProt Q9HC98). Put plainly: Inhibition of NEK6 in human PC3 cell lysates at 10 uM using desthiobiotin-tagged ATP probe AX9989 followed by trypsinization by LC/MS analysis.
Chain of Serine/threonine-protein kinase Nek6 (Homo sapiens) (Q9HC98 whole entry): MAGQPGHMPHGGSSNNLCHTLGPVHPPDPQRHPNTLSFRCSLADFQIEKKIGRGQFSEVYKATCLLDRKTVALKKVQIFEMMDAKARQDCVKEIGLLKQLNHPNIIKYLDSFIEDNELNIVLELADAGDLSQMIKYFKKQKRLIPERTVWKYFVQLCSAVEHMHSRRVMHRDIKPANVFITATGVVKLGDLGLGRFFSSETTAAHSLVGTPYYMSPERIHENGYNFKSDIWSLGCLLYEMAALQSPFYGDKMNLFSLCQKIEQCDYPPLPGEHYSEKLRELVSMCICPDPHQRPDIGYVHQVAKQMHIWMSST

Chain of Mitogen-activated protein kinase 14 (Homo sapiens) (Q16539 whole entry): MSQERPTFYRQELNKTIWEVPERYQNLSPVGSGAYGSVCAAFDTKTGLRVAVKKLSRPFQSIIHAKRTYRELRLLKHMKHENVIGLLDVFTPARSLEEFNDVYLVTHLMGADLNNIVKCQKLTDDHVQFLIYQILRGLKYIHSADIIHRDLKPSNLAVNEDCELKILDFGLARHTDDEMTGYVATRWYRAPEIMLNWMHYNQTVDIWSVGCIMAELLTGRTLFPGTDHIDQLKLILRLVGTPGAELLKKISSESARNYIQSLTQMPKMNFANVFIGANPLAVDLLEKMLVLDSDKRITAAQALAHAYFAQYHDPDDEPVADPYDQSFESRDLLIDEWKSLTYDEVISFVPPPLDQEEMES
Chain of Phosphatidylinositol 4,5-bisphosphate 3-kinase catalytic subunit beta isoform (Homo sapiens) (P42338 whole entry, looked up, canonical isoform): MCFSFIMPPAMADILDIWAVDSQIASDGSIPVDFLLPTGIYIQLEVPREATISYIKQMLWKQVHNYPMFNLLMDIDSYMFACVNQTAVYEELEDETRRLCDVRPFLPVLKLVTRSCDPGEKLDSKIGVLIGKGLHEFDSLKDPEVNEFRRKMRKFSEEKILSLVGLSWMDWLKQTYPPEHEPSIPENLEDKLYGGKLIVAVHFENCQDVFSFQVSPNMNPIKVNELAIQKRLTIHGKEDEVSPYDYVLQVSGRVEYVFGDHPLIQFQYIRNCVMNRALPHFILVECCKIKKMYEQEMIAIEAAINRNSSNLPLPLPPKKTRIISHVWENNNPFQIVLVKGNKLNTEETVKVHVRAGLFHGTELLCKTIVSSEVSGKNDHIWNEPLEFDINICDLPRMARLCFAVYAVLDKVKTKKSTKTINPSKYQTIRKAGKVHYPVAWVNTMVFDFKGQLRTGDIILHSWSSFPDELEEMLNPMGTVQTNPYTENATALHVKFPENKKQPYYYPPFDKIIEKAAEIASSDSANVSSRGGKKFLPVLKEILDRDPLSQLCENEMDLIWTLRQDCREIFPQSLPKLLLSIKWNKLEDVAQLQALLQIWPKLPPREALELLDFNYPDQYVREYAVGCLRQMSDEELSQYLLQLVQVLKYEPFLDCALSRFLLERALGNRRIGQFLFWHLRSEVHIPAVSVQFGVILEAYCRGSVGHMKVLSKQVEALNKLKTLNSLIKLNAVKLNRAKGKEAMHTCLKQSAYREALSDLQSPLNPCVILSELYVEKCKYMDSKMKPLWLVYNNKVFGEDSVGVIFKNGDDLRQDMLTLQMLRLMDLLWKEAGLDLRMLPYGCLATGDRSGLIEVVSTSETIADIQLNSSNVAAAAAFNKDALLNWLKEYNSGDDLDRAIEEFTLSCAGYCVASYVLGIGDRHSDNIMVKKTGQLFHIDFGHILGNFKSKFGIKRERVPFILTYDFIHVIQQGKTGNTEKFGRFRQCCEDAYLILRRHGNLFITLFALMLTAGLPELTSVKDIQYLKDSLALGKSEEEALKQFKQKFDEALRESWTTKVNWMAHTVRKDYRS
Chain of Cyclin-dependent kinase 16 (Homo sapiens) (Q00536 whole entry): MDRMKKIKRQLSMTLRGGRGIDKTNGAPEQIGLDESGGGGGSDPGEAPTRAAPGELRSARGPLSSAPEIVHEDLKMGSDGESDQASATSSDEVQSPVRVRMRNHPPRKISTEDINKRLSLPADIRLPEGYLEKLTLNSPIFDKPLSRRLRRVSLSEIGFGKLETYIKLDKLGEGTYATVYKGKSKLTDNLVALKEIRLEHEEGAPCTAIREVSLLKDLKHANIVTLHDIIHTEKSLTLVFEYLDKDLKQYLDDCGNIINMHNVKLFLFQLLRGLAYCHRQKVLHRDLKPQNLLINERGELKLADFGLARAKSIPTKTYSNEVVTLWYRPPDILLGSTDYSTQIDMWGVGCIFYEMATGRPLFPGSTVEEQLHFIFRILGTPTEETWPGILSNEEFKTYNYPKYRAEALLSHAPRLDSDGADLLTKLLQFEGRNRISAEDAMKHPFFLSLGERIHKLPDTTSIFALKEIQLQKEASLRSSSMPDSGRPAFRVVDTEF
Chain of AMPK alpha1/alpha2 (Homo sapiens) (P54646 whole entry, looked up): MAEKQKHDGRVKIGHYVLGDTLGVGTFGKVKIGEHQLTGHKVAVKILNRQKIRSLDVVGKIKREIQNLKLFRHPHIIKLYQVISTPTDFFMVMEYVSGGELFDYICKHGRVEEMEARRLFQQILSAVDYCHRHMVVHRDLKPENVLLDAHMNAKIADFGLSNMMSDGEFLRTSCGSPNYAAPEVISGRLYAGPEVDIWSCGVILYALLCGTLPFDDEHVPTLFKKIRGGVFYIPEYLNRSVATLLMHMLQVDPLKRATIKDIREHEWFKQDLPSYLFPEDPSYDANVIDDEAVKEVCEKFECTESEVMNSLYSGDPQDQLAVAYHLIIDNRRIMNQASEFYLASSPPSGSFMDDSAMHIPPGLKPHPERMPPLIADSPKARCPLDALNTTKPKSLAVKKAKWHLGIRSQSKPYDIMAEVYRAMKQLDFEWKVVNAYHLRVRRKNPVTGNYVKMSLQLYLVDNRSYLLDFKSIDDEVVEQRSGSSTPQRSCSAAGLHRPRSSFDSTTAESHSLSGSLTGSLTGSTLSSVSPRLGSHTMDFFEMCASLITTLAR
Chain of AMPK alpha1/alpha2 (Homo sapiens) (Q13131 whole entry, looked up): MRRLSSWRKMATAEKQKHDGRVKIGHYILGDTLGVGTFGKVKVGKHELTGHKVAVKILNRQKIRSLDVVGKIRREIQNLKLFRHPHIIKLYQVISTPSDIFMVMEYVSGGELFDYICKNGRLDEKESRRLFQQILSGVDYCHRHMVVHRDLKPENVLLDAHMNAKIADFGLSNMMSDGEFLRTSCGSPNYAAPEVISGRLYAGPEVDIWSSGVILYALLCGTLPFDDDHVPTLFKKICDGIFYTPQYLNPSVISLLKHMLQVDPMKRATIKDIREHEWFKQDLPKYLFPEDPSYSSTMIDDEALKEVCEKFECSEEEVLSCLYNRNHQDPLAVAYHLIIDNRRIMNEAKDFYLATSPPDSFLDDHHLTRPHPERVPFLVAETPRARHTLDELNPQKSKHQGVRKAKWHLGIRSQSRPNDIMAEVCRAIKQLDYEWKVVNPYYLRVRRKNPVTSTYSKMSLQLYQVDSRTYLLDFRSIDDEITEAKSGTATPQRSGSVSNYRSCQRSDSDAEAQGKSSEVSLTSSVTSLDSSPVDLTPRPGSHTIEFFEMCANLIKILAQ
Chain of Rho-associated protein kinase 1 (Homo sapiens) (Q13464 2-1354 limits assumed): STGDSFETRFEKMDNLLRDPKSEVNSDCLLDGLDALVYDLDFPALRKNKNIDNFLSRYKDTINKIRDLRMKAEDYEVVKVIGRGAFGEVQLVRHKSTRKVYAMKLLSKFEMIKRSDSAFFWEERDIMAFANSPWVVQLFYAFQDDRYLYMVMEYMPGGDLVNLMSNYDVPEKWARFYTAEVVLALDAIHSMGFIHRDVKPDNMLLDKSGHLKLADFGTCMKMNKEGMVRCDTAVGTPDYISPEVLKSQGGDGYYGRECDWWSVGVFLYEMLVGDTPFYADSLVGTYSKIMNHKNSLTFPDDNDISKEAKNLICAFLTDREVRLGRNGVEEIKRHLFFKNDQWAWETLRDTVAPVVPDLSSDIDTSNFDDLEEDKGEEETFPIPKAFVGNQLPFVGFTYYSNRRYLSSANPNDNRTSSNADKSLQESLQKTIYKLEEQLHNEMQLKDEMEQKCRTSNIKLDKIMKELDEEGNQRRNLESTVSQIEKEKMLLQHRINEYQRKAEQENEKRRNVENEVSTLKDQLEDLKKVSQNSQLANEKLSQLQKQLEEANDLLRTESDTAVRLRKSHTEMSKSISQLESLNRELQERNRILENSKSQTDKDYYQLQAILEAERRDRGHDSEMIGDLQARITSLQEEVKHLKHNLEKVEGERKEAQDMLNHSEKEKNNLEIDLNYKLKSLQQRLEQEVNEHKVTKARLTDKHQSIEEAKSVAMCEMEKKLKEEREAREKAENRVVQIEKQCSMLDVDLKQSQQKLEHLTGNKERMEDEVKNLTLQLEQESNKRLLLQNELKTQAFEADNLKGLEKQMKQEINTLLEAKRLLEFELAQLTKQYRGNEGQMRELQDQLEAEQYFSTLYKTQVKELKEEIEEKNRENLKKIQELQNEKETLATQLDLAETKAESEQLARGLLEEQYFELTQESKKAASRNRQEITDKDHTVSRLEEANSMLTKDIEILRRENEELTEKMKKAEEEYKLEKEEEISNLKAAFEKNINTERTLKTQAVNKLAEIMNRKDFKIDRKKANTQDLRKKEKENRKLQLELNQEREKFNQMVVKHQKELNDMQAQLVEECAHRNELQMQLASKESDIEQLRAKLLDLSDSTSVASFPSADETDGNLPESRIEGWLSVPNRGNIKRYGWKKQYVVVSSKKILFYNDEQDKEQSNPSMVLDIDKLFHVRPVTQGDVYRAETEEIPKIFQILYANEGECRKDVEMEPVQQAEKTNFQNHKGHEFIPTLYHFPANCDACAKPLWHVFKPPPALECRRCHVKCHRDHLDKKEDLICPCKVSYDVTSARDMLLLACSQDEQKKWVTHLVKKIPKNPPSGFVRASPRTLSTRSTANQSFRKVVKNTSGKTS

In the case of `O=C(NC1(c2ccc(F)cc2)CC1)c1ccc2nc(N[C@H]3CC[C@H](O)CC3)c3nccn3c2c1`, the inhibition in test [1], in test [2], in [3], in test [4], in test [5] and in test [6] was under 35% throughout. Besides, the inhibition in test [7], in [8], in [9] and in test [10] was under 35% throughout.

Consider `C[C@H](NC(=O)c1ccc2nc(N[C@H]3CC[C@H](O)CC3)c3nccn3c2c1)c1ccccc1`, for which the inhibition in [1], in [2], in test [3], in test [4], in test [5] and in [6] was under 35% each time. Besides, the inhibition in [7], in test [8], in test [9] and in test [10] was under 35% throughout.

Consider `O=C(O)c1ccc2nc(N[C@H]3CC[C@H](O)CC3)c3nccn3c2c1`, for which the inhibition in test [1] is 37.1%; in [2], under 35%; in test [3] it was under 35%; in [4] it was 37.5%; in test [5], under 35%; in test [6] it was under 35%. In addition, the inhibition in test [7] is 71.1%; in [8], under 35%; in [9] it was under 35%; in [10], under 35%.

As for `O=C(NC1(c2ccccc2)CC1)c1ccc2nc(N[C@H]3CC[C@H](O)CC3)c3nccn3c2c1`, the inhibition in test [1], in test [2], in test [3], in test [4], in test [5] and in [6] was under 35% each time. Besides, the inhibition in test [7], in test [8], in test [9] and in [10] was under 35% in each case.

On to `O=C(N[C@H](CO)c1ccccc1)c1ccc2nc(N[C@H]3CC[C@H](O)CC3)c3nccn3c2c1`, for which the inhibition in [1] was under 35%; in [2], under 35%; in test [3] it was under 35%; in test [4] it was under 35%; in test [5], under 35%; in [6], 40.1%. Moreover, the inhibition in test [7], in [8], in test [9] and in test [10] was under 35% throughout.

For `C[C@@H](NC(=O)c1ccc2nc(N[C@H]3CC[C@H](O)CC3)c3nccn3c2c1)c1ccccc1`, the inhibition in test [1] was under 35%; in test [2], under 35%; in [3], under 35%; in test [4] it was 38.4%; in test [5], under 35%; in [6], 43.2%. Moreover, the inhibition was under 35% in test [7], under 35% in test [8], 38.7% in [9] and under 35% in [10].

With `CC[C@@H](NC(=O)c1ccc2nc(N[C@H]3CC[C@H](O)CC3)c3nccn3c2c1)c1ccccc1`, the inhibition in test [1], in test [2], in [3], in [4], in [5] and in test [6] was under 35% each time. The inhibition in [7], in test [8], in test [9] and in [10] was under 35% in each case.

`CCC[C@@H](NC(=O)c1ccc2nc(N[C@H]3CC[C@H](O)CC3)c3nccn3c2c1)c1ccccc1`: the inhibition in test [1], in test [2], in test [3], in test [4], in test [5] and in test [6] was under 35% each time. Besides, the inhibition in test [7], in test [8], in test [9] and in test [10] was under 35% throughout.

The term inhibition denotes how much of the control response was suppressed.
